{
  "source": "patent US8871933B2",
  "about": "“Purified pyrroloquinolinyl-pyrrolidine-2,5-dione compositions and methods for preparing and using same” (ArQule, Inc., priority 2009, dated 2014)",
  "key": {"[1]": {"tested_on": "human prostate cancer PC3", "test": "Human prostate cancer xenograft", "assay_type": "in vivo", "settings": "monotherapy", "experimental": "(§1) The efficacy of (−)-trans-3-(5,6-dihydro-4H-pyrrolo[3,2,1-ij]quinolin-1-yl)-4-(1H-indol-3-yl)pyrrolidine-2,5-dione was also tested in xenograft models with several other cancer cell lines: human pancreatic cancer MIA PaCa2 (FIG. 9, Panel B), human prostate cancer PC3 (FIG. 9, Panel C) and human gastric cancer MKN45 (FIG. 9, Panel D). The cells were treated with (−)-trans-3-(5,6-dihydro-4H-pyrrolo[3,2,1-ij]quinolin-1-yl)-4-(1H-indol-3-yl)pyrrolidine-2,5-dione as a monotherapy at indicated concentrations."}, "[2]": {"tested_on": "human gastric cancer MKN45", "test": "Human gastric cancer xenograft", "assay_type": "in vivo", "settings": "monotherapy", "experimental": "as §1"}, "[3]": {"molecular_target": "T1, c-Met (Homo sapiens, UniProt P08581)", "T1 sequence (P08581 25-1390)": "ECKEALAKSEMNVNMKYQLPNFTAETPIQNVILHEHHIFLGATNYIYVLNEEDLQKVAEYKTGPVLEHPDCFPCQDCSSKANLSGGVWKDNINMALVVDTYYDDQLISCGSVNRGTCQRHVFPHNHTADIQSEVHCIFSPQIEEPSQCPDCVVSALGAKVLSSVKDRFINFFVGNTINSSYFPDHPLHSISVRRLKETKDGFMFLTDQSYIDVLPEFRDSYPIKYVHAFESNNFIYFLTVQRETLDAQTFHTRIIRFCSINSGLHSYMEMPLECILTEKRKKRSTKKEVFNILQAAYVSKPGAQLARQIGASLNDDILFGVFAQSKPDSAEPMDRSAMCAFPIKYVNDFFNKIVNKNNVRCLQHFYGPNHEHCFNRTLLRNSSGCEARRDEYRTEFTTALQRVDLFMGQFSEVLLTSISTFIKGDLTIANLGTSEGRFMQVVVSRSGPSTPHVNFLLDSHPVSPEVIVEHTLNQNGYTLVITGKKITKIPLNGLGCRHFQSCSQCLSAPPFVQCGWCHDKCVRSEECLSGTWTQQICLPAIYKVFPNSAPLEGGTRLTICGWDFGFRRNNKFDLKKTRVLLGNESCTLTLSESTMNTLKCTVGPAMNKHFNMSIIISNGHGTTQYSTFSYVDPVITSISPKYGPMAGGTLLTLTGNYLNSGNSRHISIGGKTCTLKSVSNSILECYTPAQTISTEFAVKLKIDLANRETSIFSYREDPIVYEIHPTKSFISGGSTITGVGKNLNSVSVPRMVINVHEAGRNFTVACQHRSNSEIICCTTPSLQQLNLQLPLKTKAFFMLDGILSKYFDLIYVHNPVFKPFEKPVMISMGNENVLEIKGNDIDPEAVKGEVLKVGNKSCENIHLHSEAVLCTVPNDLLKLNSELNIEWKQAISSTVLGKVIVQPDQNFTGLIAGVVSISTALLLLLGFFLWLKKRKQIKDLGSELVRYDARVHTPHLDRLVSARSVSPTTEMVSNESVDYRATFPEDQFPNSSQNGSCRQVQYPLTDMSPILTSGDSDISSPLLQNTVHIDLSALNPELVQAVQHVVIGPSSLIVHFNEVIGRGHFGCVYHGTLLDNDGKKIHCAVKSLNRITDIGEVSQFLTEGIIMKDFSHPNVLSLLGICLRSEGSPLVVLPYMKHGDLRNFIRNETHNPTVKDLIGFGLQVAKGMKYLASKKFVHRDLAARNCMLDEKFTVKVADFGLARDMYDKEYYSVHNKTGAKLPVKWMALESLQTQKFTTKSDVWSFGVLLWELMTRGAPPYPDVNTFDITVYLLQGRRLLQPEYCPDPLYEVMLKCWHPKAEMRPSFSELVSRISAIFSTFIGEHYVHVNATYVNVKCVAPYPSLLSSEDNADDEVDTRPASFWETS", "test": "Kinase inhibition, c-Met", "assay_type": "biochemical", "settings": "read-out: inhibitory constant (Ki)", "experimental": "(§2) (−)-trans-3-(5,6-dihydro-4H-pyrrolo[3,2,1-ij]quinolin-1-yl)-4-(1H-indol-3-yl)pyrrolidine-2,5-dione was assessed for its activity to inhibit a large panel (n=230) of human kinases."}, "[4]": {"molecular_target": "Flt4 (Homo sapiens, UniProt P35916)", "sequence (P35916 25-1363)": "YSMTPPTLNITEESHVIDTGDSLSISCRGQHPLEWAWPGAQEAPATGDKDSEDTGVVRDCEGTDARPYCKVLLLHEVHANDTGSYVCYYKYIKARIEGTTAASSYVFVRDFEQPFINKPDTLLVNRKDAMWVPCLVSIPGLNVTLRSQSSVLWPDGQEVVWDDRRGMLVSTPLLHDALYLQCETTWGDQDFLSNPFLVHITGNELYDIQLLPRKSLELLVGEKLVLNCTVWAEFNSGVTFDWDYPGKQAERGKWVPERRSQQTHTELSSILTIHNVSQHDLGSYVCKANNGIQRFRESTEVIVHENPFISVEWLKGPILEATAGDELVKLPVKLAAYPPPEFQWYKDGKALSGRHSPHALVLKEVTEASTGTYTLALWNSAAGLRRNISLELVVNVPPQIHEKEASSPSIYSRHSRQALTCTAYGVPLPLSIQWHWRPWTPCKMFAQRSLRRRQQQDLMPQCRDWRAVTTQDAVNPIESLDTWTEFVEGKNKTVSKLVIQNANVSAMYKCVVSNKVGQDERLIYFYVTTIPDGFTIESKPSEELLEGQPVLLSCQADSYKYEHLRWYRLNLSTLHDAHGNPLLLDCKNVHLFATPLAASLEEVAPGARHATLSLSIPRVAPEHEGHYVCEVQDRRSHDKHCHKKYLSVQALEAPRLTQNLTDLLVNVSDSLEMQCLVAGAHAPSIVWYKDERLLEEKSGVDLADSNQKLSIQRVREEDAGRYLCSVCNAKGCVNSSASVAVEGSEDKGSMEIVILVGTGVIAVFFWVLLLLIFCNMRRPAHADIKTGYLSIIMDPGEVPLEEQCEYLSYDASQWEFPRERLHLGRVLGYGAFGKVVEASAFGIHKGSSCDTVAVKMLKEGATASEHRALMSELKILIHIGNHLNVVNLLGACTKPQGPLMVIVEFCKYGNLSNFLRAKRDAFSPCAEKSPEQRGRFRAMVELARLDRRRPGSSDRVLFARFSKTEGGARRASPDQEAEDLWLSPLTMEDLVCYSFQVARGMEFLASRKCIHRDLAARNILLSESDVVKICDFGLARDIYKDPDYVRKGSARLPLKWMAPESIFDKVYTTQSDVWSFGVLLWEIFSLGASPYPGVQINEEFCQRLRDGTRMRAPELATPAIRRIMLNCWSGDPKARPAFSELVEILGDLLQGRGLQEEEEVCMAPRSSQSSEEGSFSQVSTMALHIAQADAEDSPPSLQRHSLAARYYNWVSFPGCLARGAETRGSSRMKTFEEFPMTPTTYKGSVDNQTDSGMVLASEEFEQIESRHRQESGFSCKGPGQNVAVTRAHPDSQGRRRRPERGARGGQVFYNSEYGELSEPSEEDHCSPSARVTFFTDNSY", "test": "Kinase panel inhibition, Flt4", "assay_type": "biochemical", "experimental": "as §2"}, "[5]": {"molecular_target": "Pim-1 (Homo sapiens, UniProt P11309)", "sequence (P11309 whole entry)": "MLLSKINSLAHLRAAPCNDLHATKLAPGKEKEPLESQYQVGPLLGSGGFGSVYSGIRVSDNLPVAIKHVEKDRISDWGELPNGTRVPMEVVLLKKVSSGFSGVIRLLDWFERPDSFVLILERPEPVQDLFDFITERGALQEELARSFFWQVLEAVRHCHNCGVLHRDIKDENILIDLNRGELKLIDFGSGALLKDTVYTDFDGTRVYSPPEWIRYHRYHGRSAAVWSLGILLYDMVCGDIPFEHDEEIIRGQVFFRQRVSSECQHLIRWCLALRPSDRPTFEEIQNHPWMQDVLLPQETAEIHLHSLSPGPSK", "test": "Kinase panel inhibition, Pim-1", "assay_type": "biochemical", "experimental": "as §2"}, "[6]": {"tested_on": "panel (n=230) of human kinases", "test": "Large panel (n=230) of human kinases", "assay_type": "biochemical", "settings": "n=230 human kinases", "experimental": "as §2"}, "[7]": {"tested_on": "clear cell sarcoma and MiT-associated tumors", "test": "Clinical study in patients with clear cell sarcoma and MiT-associated tumors", "assay_type": "in vivo, human", "source_text": "The present example describes the inhibition of c-Met Receptor Tyrosine Kinase in Clear Cell Sarcoma and MiT (Microphthalmia Transcription Factor)-Associated Tumors. […] The studies described in the present example used (−)-trans-3-(5,6-dihydro-4H-pyrrolo[3,2,1-ij]quinolin-1-yl)-4-(1H-indol-3-yl)pyrrolidine-2,5,-dione, a small molecule inhibitor of the c-Met receptor tyrosine kinase.\n(−)-trans-3-(5,6-dihydro-4H-pyrrolo[3,2,1-ij]quinolin-1-yl)-4-(1H-indol-3-yl)pyrrolidine-2,5,-dione was administered to a patient with clear cell sarcoma. […]\n(−)-trans-3-(5,6-dihydro-4H-pyrrolo[3,2,1-ij]quinolin-1-yl)-4-(1H-indol-3-yl)pyrrolidine-2,5,-dione is administered to patients with MiT (Microphthalmia Transcription Factor)-associated tumors. MiT tumors, which can include clear cell sarcoma (CCS), alveolar soft part sarcoma (ASPS) and translocation-associated renal cell carcinoma (RCC), are linked biologically through a common chromosomal abnormality that is responsible for the overexpression of c-Met resulting in the development of these tumors. Tumors with this abnormality are resistant to current therapies and, in the absence of successful surgical resection, are invariably fatal."}, "[8]": {"tested_on": "tumors", "test": "Clinical studies (tolerability and tumor responses)", "assay_type": "in vivo, human", "source_text": "(−)-trans-3-(5,6-dihydro-4H-pyrrolo[3,2,1-ij]quinolin-1-yl)-4-(1H-indol-3-yl)pyrrolidine-2,5,-dione is a selective inhibitor of c-Met, a receptor tyrosine kinase. When abnormally activated, c-Met plays multiple roles in aspects of human cancer, including cancer cell growth, survival, angiogenesis, invasion and metastasis."}, "[9]": {"molecular_target": "T1, c-Met", "test": "c-Met phosphorylation in MDA-MB-231 cells, basal and HGF-induced (Western blot)", "assay_type": "cell-based", "design": "Whole cell extracts were prepared in lysis buffer; endogenous in cells; host or cells: MDA-MB-231", "settings": "serum-deprived 16 hours, 100 ng/ml HGF/SF for 10 minutes", "experimental": "MDA-MB-231 cells were serum-deprived overnight (16 hours) in the absence or in the presence of the indicated concentrations of the separate enantiomers (+)-trans-3-(5,6-dihydro-4H-pyrrolo[3,2,1-ij]quinolin-1-yl)-4-(1H-indol-3-yl)pyrrolidine-2,5-dione and (−)-trans-3-(5,6-dihydro-4H-pyrrolo[3,2,1-ij]quinolin-1-yl)-4-(1H-indol-3-yl)pyrrolidine-2,5-dione. Cells were treated with 100 ng/ml recombinant human Hepatocyte Growth Factor/Scatter Factor (HGF/SF) (R&D Systems #294-HG) for 10 minutes. Whole cell extracts were prepared in lysis buffer (20 mM Tris-HCl pH 7.5, 150 mM NaCl, 1 mM Na2EDTA, 1 mM EGTA, 1% Triton X-100, 2.5 mM sodium pyrophosphate, 1 mM beta-glycerophosphate, 1 mM Na3VO4, 1 μg/ml leupeptin, 1 mM phenylmethylsulfonyl fluoride) and sonicated. Protein concentration was measured by Bradford assay using the BioRad reagent (BioRad, Hercules, Calif.), according to the manufacturer's directions. Samples ([…] of protein) were resolved by 8% SDS-PAGE under reducing conditions and transferred onto a PVDF membrane (BioRad). […] Proteins were detected by incubation overnight at 4° C. in TBS-T with 5% milk and either a polyclonal antibody against phosphorylated c-Met (#3121) or a monoclonal antibody against β-actin (A-5441) (Sigma), which was used as a control for total protein loading. […]"}, "[10]": {"molecular_target": "T1, c-Met", "test": "c-Met in tumor biopsies from treated patients", "assay_type": "in vivo", "design": "the c-Met protein in tumor biopsies from patients; from tissue; host or cells: tumour biopsies from treated patients", "settings": "patients treated with the drug"}},
  "data": [
    {"smiles": "O=C1NC(=O)[C@@H](c2cn3c4c(cccc24)CCC3)[C@@H]1c1c[nH]c2ccccc12", "note": "(single isomer, unassigned) [(−)-trans-3-(5,6-dihydro-4H-pyrrolo[3,2,1-ij]quinolin-1-yl)-4-(1H-indol-3-yl)pyrrolidine-2,5-dione]", "values": [
      {"measurement": "tumor growth", "setting": "[1]", "value": "significantly inhibited tumor growth"},
      {"measurement": "tumor growth", "setting": "[2]", "value": "significantly inhibited tumor growth"},
      {"measurement": "Ki", "setting": "[3]", "value": "~0.36", "unit": "µM"},
      {"measurement": "IC50", "setting": "[4]", "value": "~16", "unit": "µM"},
      {"measurement": "IC50", "setting": "[5]", "value": 10, "unit": "µM"},
      {"measurement": "inhibition at 10 µM", "setting": "[5]; 10 μM", "value": 33, "unit": "%"},
      {"measurement": "kinase selectivity in panel", "setting": "[6]", "value": "inhibited only c-Met to a significant degree"},
      {"measurement": "patients with stable disease", "setting": "[7]; 120 mg b.i.d., 23 patients enrolled, fourteen evaluable for efficacy", "value": "ten of the evaluable patients have demonstrated stable disease"},
      {"measurement": "response as defined by RECIST", "setting": "[7]; a patient with clear cell sarcoma", "value": "partial response"},
      {"measurement": "tumor responses in clinical studies", "setting": "[8]; broad ranges of tumors and doses", "value": "tumor responses and prolonged stable disease"},
      {"measurement": "tolerability in clinical studies", "setting": "[8]; human, in vivo", "value": "well tolerated"},
      {"measurement": "concentration that inhibits both basal and HGF-induced autophosphorylation of c-Met", "setting": "[9]", "value": "at least 30 nM"},
      {"measurement": "inhibition of c-Met protein in tumor biopsies", "setting": "[10]", "value": "ability to inhibit the c-Met protein in tumor biopsies"}
    ]}
  ]
}
